Like-named read-outs stand apart in the source and are kept apart here.

What all share (assay): biochemical
Type in all cases: biochemical

Assay [1] deals with T1, 382 unique human kinases (Homo sapiens, UniProt O14920).
T1 construct: purchased Reaction Biology (HotSpot contract assay)
T1 sequence (O14920 1-756): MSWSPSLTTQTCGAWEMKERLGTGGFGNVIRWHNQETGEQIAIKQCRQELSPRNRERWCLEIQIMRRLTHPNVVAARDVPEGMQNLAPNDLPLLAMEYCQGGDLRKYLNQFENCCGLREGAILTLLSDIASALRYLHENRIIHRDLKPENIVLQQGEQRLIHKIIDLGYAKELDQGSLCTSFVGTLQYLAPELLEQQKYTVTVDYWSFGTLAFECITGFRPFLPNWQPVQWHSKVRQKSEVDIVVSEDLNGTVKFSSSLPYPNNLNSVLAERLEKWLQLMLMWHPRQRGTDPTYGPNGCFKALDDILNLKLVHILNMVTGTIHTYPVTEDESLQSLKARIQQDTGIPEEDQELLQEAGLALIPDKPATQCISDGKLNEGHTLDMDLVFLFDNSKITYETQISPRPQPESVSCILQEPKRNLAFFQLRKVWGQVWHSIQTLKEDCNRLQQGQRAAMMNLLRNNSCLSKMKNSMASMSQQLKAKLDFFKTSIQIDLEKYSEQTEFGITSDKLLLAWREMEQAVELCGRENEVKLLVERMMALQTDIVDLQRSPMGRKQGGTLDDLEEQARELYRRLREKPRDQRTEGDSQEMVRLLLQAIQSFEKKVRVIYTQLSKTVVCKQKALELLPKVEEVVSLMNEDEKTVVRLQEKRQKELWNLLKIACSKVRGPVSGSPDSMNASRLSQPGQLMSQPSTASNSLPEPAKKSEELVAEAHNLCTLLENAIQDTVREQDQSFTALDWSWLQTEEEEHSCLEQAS
The following applies: IKKb/IKBKB, 10 uM; for remaining activity at 10 µM: read-out: % Enzyme Activity (relative to DMSO controls).

The target in assay [2] is T2, 382 unique human kinases (Homo sapiens, UniProt P07949, E762Q).
T2 construct: purchased Reaction Biology (HotSpot contract assay)
The following applies: compound 10 uM; for remaining activity at 10 µM: read-out: % Enzyme Activity (relative to DMSO controls).

In assay [3] the target is T3, 382 unique human kinases (Homo sapiens, UniProt P48729).
T3 construct: purchased Reaction Biology (HotSpot contract assay)
Conditions: kinase CK1a1, compound 10 uM; for remaining activity at 10 µM: read-out: % Enzyme Activity (relative to DMSO controls).

In assay [4] the target is T4, 382 unique human kinases (Homo sapiens, UniProt Q14289).
T4 construct: purchased Reaction Biology (HotSpot contract assay)
Conditions: PYK2, 10 uM; for remaining activity at 10 µM: read-out: % Enzyme Activity (relative to DMSO controls).

The target of assay [5] is T5, 382 unique human kinases (Homo sapiens, UniProt Q6XUX3).
T5 construct: purchased Reaction Biology (HotSpot contract assay)
T5 sequence (Q6XUX3 1-929): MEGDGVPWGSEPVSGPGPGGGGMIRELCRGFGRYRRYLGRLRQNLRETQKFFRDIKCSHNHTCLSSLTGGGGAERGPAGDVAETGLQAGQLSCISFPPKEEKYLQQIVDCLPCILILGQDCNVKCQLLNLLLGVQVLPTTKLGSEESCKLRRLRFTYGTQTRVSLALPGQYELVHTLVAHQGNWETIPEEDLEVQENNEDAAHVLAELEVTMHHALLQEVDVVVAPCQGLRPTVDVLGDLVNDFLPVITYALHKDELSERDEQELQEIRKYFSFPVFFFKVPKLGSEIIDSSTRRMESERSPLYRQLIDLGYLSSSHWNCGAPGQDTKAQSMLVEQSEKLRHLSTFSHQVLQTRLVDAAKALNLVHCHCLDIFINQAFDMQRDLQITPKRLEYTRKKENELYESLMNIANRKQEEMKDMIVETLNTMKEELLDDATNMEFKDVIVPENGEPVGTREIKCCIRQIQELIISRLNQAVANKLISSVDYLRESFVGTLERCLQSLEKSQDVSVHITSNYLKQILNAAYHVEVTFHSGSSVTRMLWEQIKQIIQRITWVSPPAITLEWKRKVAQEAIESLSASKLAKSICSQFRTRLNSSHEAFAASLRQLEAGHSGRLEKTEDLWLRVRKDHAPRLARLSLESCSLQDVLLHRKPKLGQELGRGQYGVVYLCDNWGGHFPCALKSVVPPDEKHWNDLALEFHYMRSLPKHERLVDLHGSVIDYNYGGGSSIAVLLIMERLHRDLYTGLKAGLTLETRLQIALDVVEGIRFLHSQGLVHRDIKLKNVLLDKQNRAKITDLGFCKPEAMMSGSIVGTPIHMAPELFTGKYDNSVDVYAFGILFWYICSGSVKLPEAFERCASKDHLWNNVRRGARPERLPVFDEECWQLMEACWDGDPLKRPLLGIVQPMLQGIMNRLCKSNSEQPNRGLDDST
Conditions: RIPK5, 10 uM; for remaining activity at 10 µM: read-out: % Enzyme Activity (relative to DMSO controls).

The target of assay [6] is T6, 382 unique human kinases (Homo sapiens, UniProt Q9BZL6).
T6 construct: purchased Reaction Biology (HotSpot contract assay)
T6 sequence (Q9BZL6 1-878): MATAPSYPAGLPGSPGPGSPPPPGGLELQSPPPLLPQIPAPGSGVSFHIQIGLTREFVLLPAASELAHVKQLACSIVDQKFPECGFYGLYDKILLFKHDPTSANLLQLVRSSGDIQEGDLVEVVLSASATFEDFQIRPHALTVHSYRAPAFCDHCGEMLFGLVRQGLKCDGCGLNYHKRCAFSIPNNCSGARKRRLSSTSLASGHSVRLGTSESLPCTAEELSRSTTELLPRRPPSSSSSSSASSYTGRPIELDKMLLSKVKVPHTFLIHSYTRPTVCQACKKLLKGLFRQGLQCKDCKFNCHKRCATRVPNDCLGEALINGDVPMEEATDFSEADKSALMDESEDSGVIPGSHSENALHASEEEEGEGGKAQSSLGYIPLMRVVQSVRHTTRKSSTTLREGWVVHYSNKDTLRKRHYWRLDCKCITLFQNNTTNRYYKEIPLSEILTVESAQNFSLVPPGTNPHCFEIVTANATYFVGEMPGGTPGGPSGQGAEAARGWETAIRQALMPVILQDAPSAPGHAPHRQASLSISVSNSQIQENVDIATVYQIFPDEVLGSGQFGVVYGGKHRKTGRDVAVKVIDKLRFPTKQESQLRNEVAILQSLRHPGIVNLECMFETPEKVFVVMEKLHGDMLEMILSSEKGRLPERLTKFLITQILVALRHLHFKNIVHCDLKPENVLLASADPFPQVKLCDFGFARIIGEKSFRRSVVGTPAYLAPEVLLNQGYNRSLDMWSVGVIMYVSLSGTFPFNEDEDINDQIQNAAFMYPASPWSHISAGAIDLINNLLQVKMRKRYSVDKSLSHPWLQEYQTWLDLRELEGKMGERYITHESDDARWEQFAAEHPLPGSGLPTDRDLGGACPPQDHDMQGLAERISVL
Conditions: kinase PKD2/PRKD2, compound 10 uM; for remaining activity at 10 µM: read-out: % Enzyme Activity (relative to DMSO controls).

The target in assay [7] is T7, 382 unique human kinases (Homo sapiens, UniProt P16234, V561D).
T7 construct: purchased Reaction Biology (HotSpot contract assay)
The following applies: PDGFRa (V561D), 10 uM; for remaining activity at 10 µM: read-out: % Enzyme Activity (relative to DMSO controls).

T2 sequence (P07949 29-1114 E762Q): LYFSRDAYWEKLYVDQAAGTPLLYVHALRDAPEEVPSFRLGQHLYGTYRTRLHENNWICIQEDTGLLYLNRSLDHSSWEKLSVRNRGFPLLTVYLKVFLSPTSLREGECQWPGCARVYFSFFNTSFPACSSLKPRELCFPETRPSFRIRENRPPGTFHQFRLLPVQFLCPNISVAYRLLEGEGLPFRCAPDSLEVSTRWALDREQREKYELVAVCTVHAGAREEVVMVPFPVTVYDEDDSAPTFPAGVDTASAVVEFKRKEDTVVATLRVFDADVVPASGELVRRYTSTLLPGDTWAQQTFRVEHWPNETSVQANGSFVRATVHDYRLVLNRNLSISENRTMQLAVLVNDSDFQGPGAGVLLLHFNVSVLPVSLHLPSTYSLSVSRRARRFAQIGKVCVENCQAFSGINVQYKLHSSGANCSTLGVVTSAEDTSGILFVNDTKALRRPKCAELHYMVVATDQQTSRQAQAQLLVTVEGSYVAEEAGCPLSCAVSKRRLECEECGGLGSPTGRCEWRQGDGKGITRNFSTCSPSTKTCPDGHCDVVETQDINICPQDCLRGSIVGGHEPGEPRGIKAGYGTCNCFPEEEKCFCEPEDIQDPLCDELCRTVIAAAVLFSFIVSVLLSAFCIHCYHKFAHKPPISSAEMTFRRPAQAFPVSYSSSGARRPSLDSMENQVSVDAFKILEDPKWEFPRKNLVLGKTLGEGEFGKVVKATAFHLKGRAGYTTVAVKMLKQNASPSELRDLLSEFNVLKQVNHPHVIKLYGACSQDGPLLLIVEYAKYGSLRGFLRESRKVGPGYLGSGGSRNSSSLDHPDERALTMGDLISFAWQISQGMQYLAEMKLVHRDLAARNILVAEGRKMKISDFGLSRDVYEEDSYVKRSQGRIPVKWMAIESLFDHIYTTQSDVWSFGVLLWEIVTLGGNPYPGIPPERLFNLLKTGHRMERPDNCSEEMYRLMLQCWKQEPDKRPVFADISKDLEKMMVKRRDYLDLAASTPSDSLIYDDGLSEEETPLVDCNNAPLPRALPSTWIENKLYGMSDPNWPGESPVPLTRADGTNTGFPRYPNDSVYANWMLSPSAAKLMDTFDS
T7 sequence (P16234 24-1089 V561D): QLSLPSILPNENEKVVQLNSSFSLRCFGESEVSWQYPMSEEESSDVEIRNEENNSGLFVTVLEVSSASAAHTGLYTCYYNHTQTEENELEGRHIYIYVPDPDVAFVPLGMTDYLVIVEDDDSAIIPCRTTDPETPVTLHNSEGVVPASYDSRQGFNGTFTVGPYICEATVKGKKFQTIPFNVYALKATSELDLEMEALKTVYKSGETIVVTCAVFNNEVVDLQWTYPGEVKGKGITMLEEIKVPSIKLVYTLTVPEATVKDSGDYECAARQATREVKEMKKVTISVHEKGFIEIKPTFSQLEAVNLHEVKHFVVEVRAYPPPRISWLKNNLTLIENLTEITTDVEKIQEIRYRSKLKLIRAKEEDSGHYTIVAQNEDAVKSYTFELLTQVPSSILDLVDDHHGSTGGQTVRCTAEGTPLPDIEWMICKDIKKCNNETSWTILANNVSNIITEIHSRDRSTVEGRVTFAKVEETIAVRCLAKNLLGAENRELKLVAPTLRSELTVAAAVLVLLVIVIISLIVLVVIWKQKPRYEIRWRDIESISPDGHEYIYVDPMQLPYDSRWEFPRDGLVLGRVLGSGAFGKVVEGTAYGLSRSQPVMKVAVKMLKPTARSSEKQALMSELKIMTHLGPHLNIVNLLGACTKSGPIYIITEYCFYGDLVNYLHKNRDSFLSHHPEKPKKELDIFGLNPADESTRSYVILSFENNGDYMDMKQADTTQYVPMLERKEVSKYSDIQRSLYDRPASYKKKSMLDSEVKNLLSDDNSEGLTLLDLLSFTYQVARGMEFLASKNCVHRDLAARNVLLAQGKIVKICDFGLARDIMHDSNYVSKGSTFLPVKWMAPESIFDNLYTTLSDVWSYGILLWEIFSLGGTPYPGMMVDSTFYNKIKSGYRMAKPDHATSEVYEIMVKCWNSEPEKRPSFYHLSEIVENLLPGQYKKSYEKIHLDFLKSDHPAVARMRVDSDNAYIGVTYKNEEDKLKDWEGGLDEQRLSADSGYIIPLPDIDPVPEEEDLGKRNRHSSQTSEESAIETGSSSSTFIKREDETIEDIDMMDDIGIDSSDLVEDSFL
T3 sequence (P48729 whole entry): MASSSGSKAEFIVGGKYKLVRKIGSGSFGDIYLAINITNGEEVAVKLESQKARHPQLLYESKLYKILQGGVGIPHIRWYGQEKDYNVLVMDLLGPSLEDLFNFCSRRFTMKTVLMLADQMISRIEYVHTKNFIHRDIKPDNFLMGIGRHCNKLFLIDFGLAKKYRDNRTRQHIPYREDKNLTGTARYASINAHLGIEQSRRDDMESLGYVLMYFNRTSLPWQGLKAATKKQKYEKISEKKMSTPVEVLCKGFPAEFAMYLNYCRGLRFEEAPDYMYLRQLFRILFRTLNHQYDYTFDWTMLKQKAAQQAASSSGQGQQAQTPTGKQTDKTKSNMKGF
T4 sequence (Q14289 whole entry): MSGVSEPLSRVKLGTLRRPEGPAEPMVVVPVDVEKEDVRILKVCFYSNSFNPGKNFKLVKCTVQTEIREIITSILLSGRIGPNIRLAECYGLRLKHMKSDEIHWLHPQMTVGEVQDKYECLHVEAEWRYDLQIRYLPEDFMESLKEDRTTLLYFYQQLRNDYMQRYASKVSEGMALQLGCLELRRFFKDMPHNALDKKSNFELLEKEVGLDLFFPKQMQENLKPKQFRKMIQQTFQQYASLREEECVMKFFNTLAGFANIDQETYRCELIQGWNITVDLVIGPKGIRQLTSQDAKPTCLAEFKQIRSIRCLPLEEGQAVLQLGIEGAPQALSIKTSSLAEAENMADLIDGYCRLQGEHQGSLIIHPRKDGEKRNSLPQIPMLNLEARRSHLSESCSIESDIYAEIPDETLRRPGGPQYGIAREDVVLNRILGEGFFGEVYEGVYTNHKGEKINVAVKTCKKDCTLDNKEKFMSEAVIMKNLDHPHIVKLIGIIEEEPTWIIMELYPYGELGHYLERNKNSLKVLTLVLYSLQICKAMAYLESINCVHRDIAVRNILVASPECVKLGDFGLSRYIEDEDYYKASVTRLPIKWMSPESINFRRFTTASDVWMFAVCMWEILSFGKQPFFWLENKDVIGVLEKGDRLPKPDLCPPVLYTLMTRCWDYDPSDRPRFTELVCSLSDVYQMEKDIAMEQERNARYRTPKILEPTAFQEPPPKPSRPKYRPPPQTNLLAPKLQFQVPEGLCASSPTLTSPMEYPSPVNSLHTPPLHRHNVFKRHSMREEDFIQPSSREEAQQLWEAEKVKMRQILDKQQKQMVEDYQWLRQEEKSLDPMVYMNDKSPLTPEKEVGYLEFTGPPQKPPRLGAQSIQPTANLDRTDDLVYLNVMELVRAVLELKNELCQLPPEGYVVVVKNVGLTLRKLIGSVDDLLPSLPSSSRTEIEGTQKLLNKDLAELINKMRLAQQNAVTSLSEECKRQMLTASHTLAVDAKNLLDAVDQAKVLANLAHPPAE

With `CC(C)c1cc(-c2n[nH]c(=O)n2-c2ccc3c(ccn3C)c2)c(O)cc1O` [Ganetespib (STA9090)], the remaining activity at 10 µM at 382 unique human kinases [1] stood at 66.7%; at 382 unique human kinases [2] ([…]), 94.2%; on 382 unique human kinases [2] (kinase RET (E762Q)), 93.8%; on 382 unique human kinases [3], 84.4%; at 382 unique human kinases [4], 78.5%; on 382 unique human kinases [5] it was 95.4%. Also, the remaining activity at 10 µM at 382 unique human kinases [6] worked out at 87%.

For `CC(C)c1cc(-c2n[nH]c(=O)n2-c2ccc3c(ccn3C)c2)c(O)cc1O` [Ganetespib], the remaining activity at 10 µM at 382 unique human kinases [7] stood at 99.7%.

As for `CCNC(=O)c1noc(-c2cc(C(C)C)c(O)cc2O)c1-c1ccc(CN2CCOCC2)cc1` [Luminespib (AUY-922)], the “% Enzyme Activity (relative to DMSO controls)” value was found to be 102.97% on 382 unique human kinases [1]; 89.64% on 382 unique human kinases [2] (kinase RET (E762Q)); 96.26% at 382 unique human kinases [3]; 97.56% at 382 unique human kinases [4]; 77.60% at 382 unique human kinases [5]; 97.40% on 382 unique human kinases [6]. For the same compound, the remaining activity at 10 µM at 382 unique human kinases [1] was found to be 104%; on 382 unique human kinases [2] (kinase RET (E762Q)), 96.6%; at 382 unique human kinases [3], 101%; at 382 unique human kinases [4], 98.8%; on 382 unique human kinases [5] it was 79.8%; on 382 unique human kinases [6] it was 99.3%.

For the compound `CCNC(=O)c1noc(-c2cc(C(C)C)c(O)cc2O)c1-c1ccc(CN2CCOCC2)cc1` [Luminespib], at 382 unique human kinases [7], the “% Enzyme Activity (relative to DMSO controls)” value is 103.61% and the remaining activity at 10 µM stood at 104%.

Source of the values: publication PMC8550792, “Evolution of kinase polypharmacology across HSP90 drug discovery” (Cell Chemical Biology, 2021).
